Results: PubChem BioAssay (NCI)
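Values below derive from 48-hour exposures of cells grown in 96-well plates, with endpoints linearly interpolated between the two concentrations bracketing the appropriate inhibition level. GI50 marks 50% less growth. TGI: concentration producing complete growth inhibition.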 Where a SMILES comes first, the peptide text is derived from it. The star is where a group is joined. Palmitoyl = CCCCCCCCCCCCCCCC(=O)*

Key:
Test in all cases: DTP human tumour cell line panel, 48 h
KM12 colon = tested on: KM12 colon
CCRF-CEM leukemia = tested on: CCRF-CEM leukemia
ACHN renal = tested on: ACHN renal
BT-549 breast = tested on: BT-549 breast
SF-539 CNS = tested on: SF-539 CNS
SF-295 CNS = tested on: SF-295 CNS
SK-MEL-5 melanoma = tested on: SK-MEL-5 melanoma
U251 CNS = tested on: U251 CNS
CAKI-1 renal = tested on: CAKI-1 renal
UACC-62 melanoma = tested on: UACC-62 melanoma

## O=C(CC(=O)Nc1ccccc1)NNC(Sc1ccccc1)c1cc(N=Nc2ccc(Br)cc2)ccc1O (stereo not drawn)
KM12 colon
  TGI: > 10 µM
CCRF-CEM leukemia
  TGI: > 10 µM
ACHN renal
  TGI: > 10 µM
BT-549 breast
  TGI: > 10 µM
SF-539 CNS
  TGI: 7.91 µM
SF-295 CNS
  TGI: > 10 µM
SK-MEL-5 melanoma
  TGI: 4.6 µM
U251 CNS
  TGI: > 10 µM
CAKI-1 renal
  TGI: > 10 µM
UACC-62 melanoma
  TGI: 9.81 µM

## O=C1c2cccc3cccc(c23)C(=O)N1CCCNCCCCNCCCNCCCN1C(=O)c2cccc3cccc(c23)C1=O
KM12 colon
  TGI: 1.83 µM
CCRF-CEM leukemia
  TGI: > 100 µM
ACHN renal
  TGI: 7.43 µM
BT-549 breast
  TGI: 3.3 µM
SF-539 CNS
  TGI: 1.94 µM
SF-295 CNS
  TGI: 22.7 µM
SK-MEL-5 melanoma
  TGI: 8.35 µM
U251 CNS
  TGI: 1.73 µM
CAKI-1 renal
  TGI: 17.3 µM
UACC-62 melanoma
  TGI: 1.6 µM

## CC(C(=O)COCc1ccccc1)P1(=O)OC(C)(C)CN1C(C)(C)C (stereo not drawn)
KM12 colon
  TGI: > 100 µM
CCRF-CEM leukemia
  TGI: > 100 µM
ACHN renal
  TGI: > 100 µM
SF-539 CNS
  TGI: > 100 µM
SF-295 CNS
  TGI: > 100 µM
SK-MEL-5 melanoma
  TGI: > 100 µM
CAKI-1 renal
  TGI: > 100 µM
UACC-62 melanoma
  TGI: > 100 µM

## N#Cc1sc2c(c1OC(=O)c1ccc(C(F)(F)F)cc1)c(=O)n(-c1ccccc1)c(=S)n2-c1ccccc1
KM12 colon
  TGI: > 100 µM
CCRF-CEM leukemia
  TGI: 36.7 µM
ACHN renal
  TGI: 93.5 µM
SF-539 CNS
  TGI: 59 µM
SF-295 CNS
  TGI: 71.4 µM
SK-MEL-5 melanoma
  TGI: 62.2 µM
U251 CNS
  TGI: 97 µM
CAKI-1 renal
  TGI: 90.9 µM
UACC-62 melanoma
  TGI: 50.9 µM

## O=C(NN1C(=O)CS(=O)(=O)C1c1ccc(C(F)(F)F)cc1)c1ccncc1 (stereo not drawn)
KM12 colon
  TGI: > 100 µM
CCRF-CEM leukemia
  TGI: > 100 µM
ACHN renal
  TGI: > 100 µM
SF-295 CNS
  TGI: > 100 µM
SK-MEL-5 melanoma
  TGI: > 100 µM
U251 CNS
  TGI: > 100 µM
CAKI-1 renal
  TGI: > 100 µM

## [N-]=[N+]=CC(=O)OC(CCl)CCl
KM12 colon
  TGI: > 100 µM
ACHN renal
  TGI: > 100 µM
BT-549 breast
  TGI: > 100 µM
SF-295 CNS
  TGI: > 100 µM
SK-MEL-5 melanoma
  TGI: > 100 µM
U251 CNS
  TGI: > 100 µM
UACC-62 melanoma
  TGI: > 100 µM

## CCOC(=O)CC/C(=N/Nc1ccc(Cl)cc1[N+](=O)[O-])C(=O)OCC
KM12 colon
  TGI: > 100 µM
CCRF-CEM leukemia
  TGI: > 100 µM
ACHN renal
  TGI: > 100 µM
BT-549 breast
  TGI: > 100 µM
SF-539 CNS
  TGI: > 100 µM
SF-295 CNS
  TGI: > 100 µM
SK-MEL-5 melanoma
  TGI: > 100 µM
U251 CNS
  TGI: > 100 µM
UACC-62 melanoma
  TGI: > 100 µM

## COc1cccc2c1OC(c1cccc3ccccc13)C([N+](=O)[O-])=C2 (stereo not drawn)
KM12 colon
  TGI: 3.05 µM
CCRF-CEM leukemia
  TGI: 2.02 µM
ACHN renal
  TGI: 3.02 µM
BT-549 breast
  TGI: 2.74 µM
SF-295 CNS
  TGI: 4.56 µM
SK-MEL-5 melanoma
  TGI: 2.96 µM
U251 CNS
  TGI: 2.9 µM
CAKI-1 renal
  TGI: 5.02 µM
UACC-62 melanoma
  TGI: 2.35 µM

## Cc1ccnc(NC(=S)Nc2ccc([N+](=O)[O-])cc2)c1
KM12 colon
  TGI: > 100 µM
CCRF-CEM leukemia
  TGI: > 100 µM
ACHN renal
  TGI: > 100 µM
BT-549 breast
  TGI: > 100 µM
SF-539 CNS
  TGI: 85.4 µM
SF-295 CNS
  TGI: > 100 µM
SK-MEL-5 melanoma
  TGI: > 100 µM
U251 CNS
  TGI: > 100 µM
UACC-62 melanoma
  TGI: > 100 µM

## Cc1cc(C[C@H]2O[C@@H]3OC(C)(C)O[C@@H]3[C@H]3OC(C)(C)O[C@H]32)c2ccccc2n1
KM12 colon
  TGI: > 100 µM
CCRF-CEM leukemia
  TGI: > 100 µM
ACHN renal
  TGI: > 100 µM
SF-539 CNS
  TGI: > 100 µM
SF-295 CNS
  TGI: > 100 µM
SK-MEL-5 melanoma
  TGI: > 100 µM
U251 CNS
  TGI: > 100 µM
CAKI-1 renal
  TGI: > 100 µM
UACC-62 melanoma
  TGI: > 100 µM

## COc1cc(C2c3cc4c(cc3[C@@H](Nc3ccccc3)C3COC(=O)[C@H]23)OCO4)cc(OC)c1O (stereo partly drawn)
KM12 colon
  TGI: 4.69 µM
CCRF-CEM leukemia
  TGI: 0.476 µM
SF-539 CNS
  TGI: 1.8 µM
SF-295 CNS
  TGI: 3.79 µM
SK-MEL-5 melanoma
  TGI: 2.66 µM
CAKI-1 renal
  TGI: 1.68 µM
UACC-62 melanoma
  TGI: 2.9 µM

## O=c1onc2n1-c1cc(Cl)ccc1C(=S)N1CSCC21 (stereo not drawn)
KM12 colon
  TGI: > 100 µM
CCRF-CEM leukemia
  TGI: > 100 µM
ACHN renal
  TGI: > 100 µM
BT-549 breast
  TGI: > 100 µM
SF-295 CNS
  TGI: > 100 µM
SK-MEL-5 melanoma
  TGI: > 100 µM
U251 CNS
  TGI: > 100 µM
CAKI-1 renal
  TGI: > 100 µM
UACC-62 melanoma
  TGI: > 100 µM

## CC(C)C1=CC23CCC4C(C)(C(=O)O)CCCC4(C)C2CC1C1C(=O)N(CCCCCCN2C(=O)C4C5CC6C7(C)CCCC(C)(C(=O)O)C7CCC6(C=C5C(C)C)C4C2=O)C(=O)C13 (stereo not drawn)
KM12 colon
  TGI: 23.9 µM
CCRF-CEM leukemia
  TGI: 37.7 µM
ACHN renal
  TGI: 22.8 µM
SK-MEL-5 melanoma
  TGI: 26.9 µM
U251 CNS
  TGI: 15.7 µM
UACC-62 melanoma
  TGI: > 100 µM

## CC1OC(O[C@H]2C3C=CO[C@@H](OC4OC(CO)C(O)C(O)C4O)C3[C@@]3(COC(=O)/C=C/c4ccccc4)O[C@@H]23)C(O)C(O)C1O (stereo partly drawn)
KM12 colon
  TGI: > 100 µM
CCRF-CEM leukemia
  TGI: > 100 µM
ACHN renal
  TGI: > 100 µM
BT-549 breast
  TGI: > 100 µM
SF-295 CNS
  TGI: > 100 µM
SK-MEL-5 melanoma
  TGI: > 100 µM
U251 CNS
  TGI: > 100 µM
CAKI-1 renal
  TGI: > 100 µM
UACC-62 melanoma
  TGI: > 100 µM

## CSc1csc(-c2ccc(-c3ccc(-c4cc(SC)cs4)s3)s2)c1
KM12 colon
  TGI: > 100 µM
CCRF-CEM leukemia
  TGI: > 100 µM
ACHN renal
  TGI: > 100 µM
BT-549 breast
  TGI: > 100 µM
SF-539 CNS
  TGI: > 100 µM
SF-295 CNS
  TGI: > 100 µM
SK-MEL-5 melanoma
  TGI: > 100 µM
U251 CNS
  TGI: > 100 µM
UACC-62 melanoma
  TGI: > 100 µM

## O=C1NC(O)CCN1C1OC(CO)C(O)C1O (stereo not drawn)
KM12 colon
  TGI: > 250 µM
CCRF-CEM leukemia
  TGI: > 250 µM
SF-539 CNS
  TGI: > 250 µM
SF-295 CNS
  TGI: > 250 µM
SK-MEL-5 melanoma
  TGI: > 92 µM
U251 CNS
  TGI: > 169 µM
CAKI-1 renal
  TGI: > 250 µM
UACC-62 melanoma
  TGI: > 250 µM

## O=C1CSC2(CC(/C=C/c3cccs3)=NN2c2cccc(S(=O)(=O)O)c2)N1c1nc2ccccc2s1 (stereo not drawn)
KM12 colon
  TGI: > 100 µM
CCRF-CEM leukemia
  TGI: > 100 µM
ACHN renal
  TGI: > 100 µM
BT-549 breast
  TGI: > 100 µM
SF-539 CNS
  TGI: > 100 µM
SK-MEL-5 melanoma
  TGI: > 100 µM
U251 CNS
  TGI: > 100 µM
CAKI-1 renal
  TGI: > 100 µM
UACC-62 melanoma
  TGI: > 100 µM

## Cc1c2c(c(C)n1-c1ccccc1)C(=O)N(CCN1CCN(c3cccc(C(F)(F)F)c3)CC1)C2=O
KM12 colon
  TGI: > 100 µM
ACHN renal
  TGI: > 100 µM
BT-549 breast
  TGI: > 100 µM
SF-539 CNS
  TGI: > 100 µM
SF-295 CNS
  TGI: > 100 µM
SK-MEL-5 melanoma
  TGI: 20.8 µM
U251 CNS
  TGI: > 100 µM
CAKI-1 renal
  TGI: > 100 µM
UACC-62 melanoma
  TGI: > 100 µM

## C=C(C)CNCCN
KM12 colon
  TGI: > 100 µM
CCRF-CEM leukemia
  TGI: > 100 µM
ACHN renal
  TGI: > 100 µM
BT-549 breast
  TGI: > 100 µM
SF-295 CNS
  TGI: > 100 µM
SK-MEL-5 melanoma
  TGI: > 100 µM
U251 CNS
  TGI: > 100 µM
CAKI-1 renal
  TGI: > 100 µM
UACC-62 melanoma
  TGI: > 100 µM

## CCCCCCCCCCCCCCCC(=O)N1CCCC1C(=O)NCC(=O)NC(Cc1ccccc1)C(=O)N1CCCC1C(=O)NC(CO)C(=O)NC(Cc1ccc(O)cc1)C(=O)NC(CCCCN)C(=O)NC(CC(C)C)C(=O)NC(CCCN=C(N)N)C(=O)N1CCCC1C(=O)NCC(N)=O (stereo not drawn) (Palmitoyl-PGFPSYKLRPG-NH2; configuration not given here)
KM12 colon
  GI50: 2.28 µM
  TGI: 12.7 µM
CCRF-CEM leukemia
  GI50: 17 µM
  TGI: 33.8 µM
BT-549 breast
  GI50: 20.8 µM
  TGI: 43.2 µM
SF-539 CNS
  GI50: 20.5 µM
  TGI: 47.9 µM
SF-295 CNS
  GI50: 26.5 µM
  TGI: 75.9 µM
SK-MEL-5 melanoma
  GI50: 28.7 µM
  TGI: > 100 µM
CAKI-1 renal
  GI50: 20.9 µM
  TGI: 50.6 µM

## O=C(OCC(Cl)(Cl)Cl)N1CC[C@H](C2CCCCC2)C1
KM12 colon
  TGI: 31.7 µM
CCRF-CEM leukemia
  TGI: 36.1 µM
ACHN renal
  TGI: 36.7 µM
BT-549 breast
  TGI: 53.9 µM
SF-295 CNS
  TGI: 31.5 µM
SK-MEL-5 melanoma
  TGI: 30 µM
U251 CNS
  TGI: 13.6 µM
CAKI-1 renal
  TGI: 88.9 µM
UACC-62 melanoma
  TGI: 52.9 µM

## Cc1ccsc1/C=N/Nc1cnccn1
KM12 colon
  TGI: > 100 µM
CCRF-CEM leukemia
  TGI: > 100 µM
ACHN renal
  TGI: > 100 µM
BT-549 breast
  TGI: > 100 µM
SF-295 CNS
  TGI: > 100 µM
SK-MEL-5 melanoma
  TGI: > 100 µM
U251 CNS
  TGI: > 100 µM
CAKI-1 renal
  TGI: > 100 µM
UACC-62 melanoma
  TGI: > 100 µM

## CC1=C(C#N)c2nc3ccccc3n2C(=O)C1(C)CCO (stereo not drawn)
CCRF-CEM leukemia
  TGI: > 100 µM
ACHN renal
  TGI: > 100 µM
BT-549 breast
  TGI: > 100 µM
SF-539 CNS
  TGI: > 100 µM
SF-295 CNS
  TGI: > 100 µM
SK-MEL-5 melanoma
  TGI: > 100 µM
U251 CNS
  TGI: > 100 µM
CAKI-1 renal
  TGI: > 100 µM
UACC-62 melanoma
  TGI: > 100 µM
